Laboratory results as given in patent EP1276895B1, “METHOD FOR THE IDENTIFICATION OF ACTIVE SITE PROTEASE INACTIVATORS” (THE UNIVERSITY OF GEORGIA RESEARCH FOUNDATION, INC., priority 2000, dated 2001).
Several values for one entry are separate records, joined by “and”; a condition that tells them apart may be missing. Equal entries are not always repeated. Residues, ends and D or L forms follow the SMILES beside them. *: point of attachment. AFC = O=c1cc(C(F)(F)F)c2ccc(N*)cc2o1; Cbz = O=C(OCc1ccccc1)*

Legend:
[1] = test system: purified Taenia solium cysteine protease; assay: Substrate cleavage screen of AFC-linked synthetic substrates (Step II), purified protease; assay type: biochemical; conditions: 1 ug purified protease, 1 ug substrate, Citrate pH 4.9 with 0.01 M cysteine, 18 h, 37 °C
Description: In this step, the most efficacious substrate for detection of the cysteine protease (high Kcat substrate) was determined in vitro along with those substrates which were not well cleaved (low kcat substrates). From this point forth, the following conditions refer to all assays: "assay buffer" refers to 0.4 M Citrate, pH 4.9 (the pH optima of the protease). Incubation time was 18 hours at 37°C. These conditions were determined by our preliminary data to be best for kinetic evaluation of the protease. […] The experiments were conducted in […] Borosilicate mini-culture tubes (Fisher Scientific), and a fluorometer (Turner) was employed for detection of AFC cleavage.
Approximately 1 ug (or a proteolytically detectable amount) of the purified target cysteine protease was incubated individually, with 1 ug of each of the available substrates in 500 uL of assay buffer. During this setup, the substrate was pre-incubated in the assay buffer for a short period of time (20 minutes) in order to reach an equilibrated status before the addition of the protease. Cleavage assessments were based upon the property of the protease to cleave synthetic peptide substrates linked at the C-terminus to 7-Amino-4-Trifluoromethyl Coumarin (AFC) as previously described. AFC linked tripeptides, dipeptides, and monopeptides, (with a variety of permutations at P3-P1) were available from Enzyme Systems Products (Livermore, CA), and were used as the source of the subset. Following incubation of enzyme preparations overnight (18 h, 37 °C) with peptide in assay buffer (Citrate, pH 4.9, supplemented with 0.01 M cysteine), free AFC concentrations were measured fluorometrically (excitation 405 nm, emission 505 nm). The proteolytic cleavage released the AFC group, which was measurable as a free molecule by a standard fluorometer and converted into molar quantities, based upon a previously established standard curve. The simplicity of AFC detection by the fluorometer was a key factor which quickened and simplified the procedures.
In the assay, 1 ug of the purified Taenia cysteine protease was added to a saturating amount of Z-Phe-Arg-AFC (4X10^-5 M) in assay buffer. The experiment was conducted in triplicate and repeated at least 5 times until we were certain that variability in AFC cleavage was not statistically significant.
Vmax was calculated for the cleavage of substrates by the purified target protease and Vmax was calculated for substrates cleaved by the crude mix protease using conventional kinetic modeling calculations already described in the art.

[2] = test system: purified Taenia solium cysteine protease; assay: Competitor assay of low Vmax substrates (vehicles) against high Vmax substrate cocktails (Step III), purified protease; assay type: biochemical; conditions: for inhibition in the presence of the 1.4% cocktail: 1.4% cocktail = Z-FR-AFC 1X10^-6M; for inhibition with the final cocktail (7.4%): 7.4% cocktail = Z-FR-AFC + Z-FAR-AFC + Z-AAK-AFC + AP-AFC + Z-VLR-AFC, 1X10^-6 M each, vehicle 8X10^-6 M; for Ki of vehicle: Dixon plot, preliminary, values not reported
Description: (We employed "Vmax" here although Kcat could also be used). Due to the lower number of substrates, a percentage was not chosen for the "BOTTOM %" " substrates. Alternately, all substrates which were not cleaved as determined by a value of 10 uM/hr or less, were chosen to be tested in this step for competitive ability. From this point forth, the term "vehicle" will represent low Vmax substrates that were capable of inhibiting cleavage of the percent cocktails. In this instance, we tested for "vehicles" which inhibited cleavage of the TOP 1.4% cocktail (they were delivered into the active site). Based upon our results from Step II, the top 1.4% cocktail was composed of Z-Phe-Arg-AFC, the highest cleaved substrate.
The experiment began with a competitor test between the noncleaved low Vmax substrates and the highest Vmax substrate, Z-Phe-Arg-AFC. Concentrations were varied between the low Vmax substrate and Z-Phe-Arg-AFC, as described above under "refinement of assay" until a relative inhibition profile was obtained.
The mixture was allowed to equilibrate for a period of 30 minutes. Finally, active purified enzyme was added to the tubes at a concentration which was always 50 times less than the concentration of the high and low Vmax substrates, in order to insure saturation conditions. This concentration varied from purification to purification and the amount added depended upon the yield and specific activity of the purified protease.
Positive controls were set up similarly as described for test controls, except that solvent was added in substitution for the low Vmax substrate (in a volume equal to the low Vmax volume addition). All of the substrates could be dissolved in dimethylsulfoxide (DMSO), and therefore, this was the solvent of choice. Negative controls were set up by adding the low Vmax and the high Vmax substrate in a tube without the protease. All potential non-proteolytic induced liberation of AFC was therefore controlled for in this tube (a feature which also insured stability of the AFC substrates, since these substrates will freely liberate AFC when unstable). A tube set will be established for this negative control.
All controls were set up in triplicate, and experiments repeated a minimum of five times. The assays were incubated at 37°C, for 18 hours overnight.
Percent inhibition was calculated as: %Inhibition =; ((AFC positive for"Y"-AFC negative for"Y")-(AFC test-AFC negative for"Y")X100)/(AFC positive for "Y"-AFC negative for "Y") [formula]
A 2.9% cocktail of the high Vmax substrates was made. This was composed of Z-FR-AFC and the second most cleaved substrate, Z-FAR-AFC. The vehicles promoted from the initial screenings above were again tested for competitive inhibition ability with the new cocktails. Their concentrations were set identically to those which were "fixed" in the previous protocols. In other words, 8X10^-6M of the vehicle was added to the culture tube with 1X10^-6 M of Z-FR-AFC and 1X10^-6 M of Z-FAR-AFC. Active protease was added last at a concentration that was 50 times less than the concentration of the high Vmax substrate (to ensure saturating conditions).
In similar experimental fashion, a 4.4%, 5.9%, and 7.4% cocktail were tested with each of the promising vehicles. Each percentage point represented an increase by one substrate. Each of the individual components in the cocktail were added at 1X10^-6 M each, to 8X10^-6 M of the vehicle. The composition of the cocktails was as follows: 4.4% cocktail: Z-FR-AFC, Z-FAR-AFC, and Z-AAK-AFC (third highest cleaved substrate); 5.9% cocktail: Z-FR-AFC, Z-FAR-AFC, Z-AAK-AFC, and AP-AFC (fourth highest cleaved substrate); 7.4% cocktail: […], Z-FAR-AFC, Z-AAK-AFC, AP-AFC, and Z-VLR-AFC. We stopped at this number of substrates in the cocktail, since confidence was obtained that inhibitory potential of vehicles could be "diluted out."
Finally, a manageable set of candidate vehicles was determined. […]

[3] = vehicle 8X10^-6M, purified protease

Row | Compound | cleavage of AFC-linked substrate (Vmax) [1] | inhibition in the presence of the 1.4% cocktail [2, 3] | inhibition with the final cocktail (7.4%) ([2]; purified protease) | Ki of vehicle [2] | cleavage of AFC-linked substrate (Vmax) ([1]; listed as M-LY-AFC) | V Value ([2]; purified protease, V = P * M, P = inhibition with first (1.4%) cocktail, M = inhibition with last (7.4%) cocktail, vehicle 8X10^-6M, each cocktail substrate 1X10^-6 M)
1 | CC(C)C[C@H](NC(=O)OCc1ccccc1)C(=O)N[C@@H](CC(C)C)C(=O)N[C@@H](CC(C)C)C(=O)Nc1ccc2c(C(F)(F)F)cc(=O)oc2c1 [Z-LLL-AFC, Z-Leu-Leu-Leu-AFC] (Cbz-Leu-Leu-Leu-{AFC}) | noncleavable | greater than 20% | ≥ 50% | lowest Ki values |  | 
2 | CC(C)C[C@H](NC(=O)OCc1ccccc1)C(=O)N[C@@H](CC(C)C)C(=O)N[C@@H](Cc1ccc(O)cc1)C(=O)Nc1ccc2c(C(F)(F)F)cc(=O)oc2c1 [Z-LLY-AFC, Z-Leu-Leu-Tyr-AFC] (Cbz-Leu-Leu-Tyr-{AFC}) | noncleavable | greater than 20% | ≥ 50% | lowest Ki values |  | 
3 | Mu-Leu-Tyr-AFC [Mu-LY-AFC] | not cleaved |  | ≥ 50% | lowest Ki values | noncleavable | 0.452 and 0.450
